Read-outs that look alike come from different tables or passages of the source.
What was measured:
HCV replicon 1A = experiment: Cell-based HCV Replicon Assay A, replicon 1A
Summary of the method: (§1)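 Replicon cells were seeded at 2000 cells/well with test compound in 10 serial dilutions, starting at 333.3 nM to 1.667 nM, in 0.5% DMSO and 5% FBS. On day 3, cells were washed and lysed, and replicon RNA was quantified by multiplex TaqMan RT-PCR normalised to cyclophilin.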

HCV replicon 1AQ30D = experiment: Cell-based HCV Replicon Assay B, replicon 1AQ30D; conditions: read-out: 1A Q30D IC50, replicon 1AQ30D
Procedure: (§2) In an alternate assay (“Replicon Assay B”), 1000 cells were seeded per well in a 384-well collagen coated black plate from Greiner bio-one (Cat #781946) in 5% FBS. Inhibitors of this invention were added at 24 h post-seeding, and the plates were incubated for 3 days. Cells were subsequently lysed with Qiagen lysis buffer (Cat #1062731) to extract the RNA. HCV replicon RNA level was measured by real-time PCR using the RNA-to-CT kit from Applied Biosystem (Cat #4392656) and genotype-specific primers and probes. The amplicon was located within NS5B. The sequence of the PCR primers are as follows: 5B.2F, ATGGACAGGCGCCCTGA (SEQ. ID NO. 1); 5B.2R, […] (SEQ. ID NO. 2); the probe sequence was FAM-labeled CACGCCATGCGCTGCGG (SEQ. ID NO. 3). To detect genotype 1A the primer 1A F, TGCGGAACCGGTGAGTACA and 1A R, […] were used; the probe sequence was FAM-[…].
(§3) The real-time RT-PCR reactions were run on ABI PRISM 7900HT or Viia7 Sequence Detection System using the following program: 48° C. for 30 minutes, 95° C. for 10 minutes, 40 cycles of 95° C. for 15 sec, 60° C. for 1 minutes. The 50% effective concentration (EC50) was the drug concentration necessary to achieve an increase in the cycle threshold (CT) of 1 over the projected baseline CT.
(§4) Data was obtained for various compounds of the present invention using the methods described in the Example above, and is presented in the table immediately below. Data for replicons 1A, 1AY93H and 2B were obtained using Replicon Assay A and data for replicons 1AQ30D and 1B were obtained using Replicon Assay B.

HCV replicon 1AY93H = experiment: Cell-based HCV Replicon Assay A, replicon 1AY93H
Summary of the method: as §1

HCV replicon 2B = experiment: Cell-based HCV Replicon Assay A, replicon 2B
Summary of the method: as §1

HCV replicon 1B = experiment: Cell-based HCV Replicon Assay B, replicon 1B
Procedure: as §2, §3, §4

[1] = read-out: 1A Y93H IC50, replicon 1AY93H
[2] = Hepatitis C virus, read-out: 1A Y93H IC50 (nM), replicon 1AY93H
[3] = Hepatitis C virus, read-out: 2B IC50 (nM), replicon 2B
[4] = replicon 1AY93H, read-out: 1A Y93H IC50

Row | SMILES | IC50 (HCV replicon 1A) [pM] | IC50 (HCV replicon 1AQ30D) [pM] | IC50 (HCV replicon 1AY93H; [1]) [nM] | IC50 (HCV replicon 2B; read-out: 2B IC50, replicon 2B) [nM] | IC50 (HCV replicon 1B; Hepatitis C virus) [pM] | IC50 (HCV replicon 1B) [pM] | IC50 (HCV replicon 1A; Hepatitis C virus) [pM] | IC50 (HCV replicon 1AY93H; [2]) [nM] | IC50 (HCV replicon 2B; [3]) [nM] | IC50 (HCV replicon 1AY93H; [4]) [nM] | IC50 (HCV replicon 2B; replicon 2B, read-out: 2B IC50) [nM]
1 | COC(=O)N[C@H](C(=O)N1CCC[C@H]1c1ncc(-c2cc(F)c3c(c2)OC(c2nc4c(s2)CCCC4)n2c-3cc3cc(-c4cnc([C@@H]5CCCN5C(=O)[C@@H](NC(=O)OC)C(C)C)[nH]4)ccc32)[nH]1)C(C)C (single isomer, unassigned) [Compound 88] | 2.8 | 415 | – | – | – | – | – | – | – | – | –
2 | COC(=O)NC(C(=O)N1CCC[C@H]1c1ncc(-c2ccc3c(c2)cc2n3C(c3cnc(C(C)(C)C)s3)Oc3cc(-c4cnc([C@@H]5CCCN5C(=O)[C@@H](NC(=O)OC)C(C)C)[nH]4)cc(F)c3-2)[nH]1)C1CCOC(C)(C)C1 (single isomer, unassigned) [Compound 315] | 2.7 | – | 0.0028 | 0.004 | 2 | – | – | – | – | – | –
3 | COC(=O)NC(C(=O)N1CCC[C@H]1c1ncc(-c2ccc3c(c2)cc2n3C(c3cnc(C(C)(C)C)s3)Oc3cc(-c4cnc([C@@H]5CCCN5C(=O)[C@@H](NC(=O)OC)C(C)C)[nH]4)cc(F)c3-2)[nH]1)C1CCOC(C)(C)C1 (single isomer, unassigned) [Compound 316] | 1.1 | – | 0.0162 | 0.012 | – | 4 | – | – | – | – | –
4 | COC(=O)N[C@H](C(=O)N1CCC[C@H]1c1ncc(-c2cc(F)c3c(c2)OC(c2csc(C4CC4)n2)n2c-3cc3cc(-c4cnc([C@@H]5CCCN5C(=O)[C@@H](NC(=O)OC)C(C)C)[nH]4)ccc32)[nH]1)C(C)C (single isomer, unassigned) [Compound 432] | – | – | 2.6 | 4 | 1 | – | 1 | – | – | – | –
5 | COC(=O)NC(C(=O)N1CCC[C@H]1c1ncc(-c2ccc3c(c2)cc2n3C(c3sc(C(C)C)nc3C)Oc3cc(-c4cnc([C@@H]5CCCN5C(=O)[C@@H](NC(=O)OC)C(C)C)[nH]4)cc(F)c3-2)[nH]1)C1CCOC(C)(C)C1 (single isomer, unassigned) [Compound 434] | – | – | – | – | 3.5 | – | 2.3 | 0.729 | 0.293 | – | –
6 | COC(=O)NC(C(=O)N1CCC[C@H]1c1ncc(-c2ccc3c(c2)cc2n3C(c3sc(C(C)C)nc3C)Oc3cc(-c4cnc([C@@H]5CCCN5C(=O)[C@@H](NC(=O)OC)C(C)C)[nH]4)cc(F)c3-2)[nH]1)C1CCOC(C)(C)C1 (single isomer, unassigned) [Compound 435] | 2.8 | – | 0.618 | 0.181 | – | 3.8 | – | – | – | – | –
7 | COC(=O)NC(C(=O)N1CCC[C@H]1c1ncc(-c2ccc3c(c2)cc2n3C(c3cnc(C4(C)CC4)s3)Oc3cc(-c4cnc([C@@H]5CCCN5C(=O)[C@@H](NC(=O)OC)C(C)C)[nH]4)cc(F)c3-2)[nH]1)C1CCOC(C)(C)C1 (single isomer, unassigned) [Compound 459] | 2.3 | – | 0.296 | 0.083 | – | 3 | – | – | – | – | –
8 | COC(=O)NC(C(=O)N1CCC[C@H]1c1ncc(-c2ccc3c(c2)cc2n3C(c3cnc(C4(C)CC4)s3)Oc3cc(-c4cnc([C@@H]5CCCN5C(=O)[C@@H](NC(=O)OC)C(C)C)[nH]4)cc(F)c3-2)[nH]1)C1CCOC(C)(C)C1 (single isomer, unassigned) [Compound 460] | 2.7 | – | 0.288 | 0.138 | – | 3.9 | – | – | – | – | –
9 | COC(=O)NC(C(=O)N1CCC[C@H]1c1ncc(-c2ccc3c(c2)cc2n3C(c3cnc(C4(C)CC4)s3)Oc3cc(-c4cnc([C@@H]5CCCN5C(=O)[C@@H](NC(=O)OC)C(C)C)[nH]4)cc(F)c3-2)[nH]1)C1C[C@@H](C)O[C@@H](C)C1 (single isomer, unassigned) [Compound 461] | – | – | 0.32 | 0.132 | 3.8 | – | 2.2 | – | – | – | –
10 | COC(=O)NC(C(=O)N1CCC[C@H]1c1ncc(-c2ccc3c(c2)cc2n3C(c3cnc(C4(C)CCCC4)s3)Oc3cc(-c4cnc([C@@H]5CCCN5C(=O)[C@@H](NC(=O)OC)C(C)C)[nH]4)cc(F)c3-2)[nH]1)C1C[C@@H](C)O[C@@H](C)C1 (single isomer, unassigned) [Compound 470] | 2.6 | – | 0.514 | 0.106 | – | 3.5 | – | – | – | – | –
11 | COC(=O)NC(C(=O)N1[C@@H]2C[C@@H]2C[C@H]1c1ncc(-c2ccc3c(c2)cc2n3C(c3cnc(C4(C)CCCC4)s3)Oc3cc(-c4cnc([C@@H]5CCCN5C(=O)[C@@H](NC(=O)OC)C(C)C)[nH]4)cc(F)c3-2)[nH]1)C1C[C@@H](C)O[C@@H](C)C1 (single isomer, unassigned) [Compound 474] | 1.5 | – | 0.269 | 0.263 | – | 3.6 | – | – | – | – | –
12 | COC(=O)NC(C(=O)N1[C@@H]2C[C@@H]2C[C@H]1c1ncc(-c2ccc3c(c2)cc2n3C(c3cnc(C4(C)CCCC4)s3)Oc3cc(-c4cnc([C@@H]5CCCN5C(=O)[C@@H](NC(=O)OC)C(C)C)[nH]4)cc(F)c3-2)[nH]1)C1CCOC(C)(C)C1 (single isomer, unassigned) [Compound 476] | 1.1 | – | 0.316 | 0.19 | – | 3.5 | – | – | – | – | –
13 | COC(=O)N[C@H](C(=O)N1CCC[C@H]1c1ncc(-c2cc(F)c3c(c2)OC(c2cnc(C4CC4)s2)n2c-3c(C)c3cc(-c4cnc([C@@H]5CCCN5C(=O)[C@@H](NC(=O)OC)C(C)C)[nH]4)ccc32)[nH]1)C(C)C (single isomer, unassigned) [Compound 495] | 1.6 | – | – | – | – | 2.5 | – | – | – | 0.27 | 0.184
14 | COC(=O)N[C@H](C(=O)N1CCC[C@H]1c1ncc(-c2cc(F)c3c(c2)OC(c2nc4c(s2)CCC4)n2c-3cc3cc(-c4cnc([C@@H]5CCCN5C(=O)[C@@H](NC(=O)OC)C(C)C)[nH]4)ccc32)[nH]1)C(C)C (single isomer, unassigned) [Compound 504] | – | – | 1.67 | 1.67 | 2.4 | – | 2.6 | – | – | – | –
15 | COC(=O)N[C@H](C(=O)N1CCC[C@H]1c1ncc(-c2cc(F)c3c(c2)OC(c2cnc(CC4CC4)s2)n2c-3cc3cc(-c4cnc([C@@H]5CCCN5C(=O)[C@@H](NC(=O)OC)C(C)C)[nH]4)ccc32)[nH]1)C(C)C (single isomer, unassigned) [Compound 509] | 2 | – | – | – | – | 2.8 | – | – | – | 0.014 | 0.018
16 | COC(=O)N[C@H](C(=O)N1CCC[C@H]1c1ncc(-c2cc(F)c3c(c2)OC(c2cnc(C4(C)CC4)s2)n2c-3cc3cc(-c4cnc([C@@H]5CCCN5C(=O)[C@@H](NC(=O)OC)C(C)C)[nH]4)ccc32)[nH]1)C(C)C (single isomer, unassigned) [Compound 512] | 8.5 | – | 0.347 | 0.783 | – | 3.9 | – | – | – | – | –
17 | COC(=O)N[C@H](C(=O)N1CCC[C@H]1c1ncc(-c2cc(F)c3c(c2)OC(c2sc(C(C)C)nc2C)n2c-3cc3cc(-c4cnc([C@@H]5CCCN5C(=O)[C@@H](NC(=O)OC)C(C)C)[nH]4)ccc32)[nH]1)C(C)C (single isomer, unassigned) [Compound 515] | – | – | – | – | 2.9 | – | 1.3 | 4.45 | 1.84 | – | –
18 | COC(=O)N[C@H](C(=O)N1CCC[C@H]1c1ncc(-c2cc(F)c3c(c2)OC(c2cnc(C4CCOCC4)s2)n2c-3cc3cc(-c4cnc([C@@H]5CCCN5C(=O)[C@@H](NC(=O)OC)C(C)C)[nH]4)ccc32)[nH]1)C(C)C (single isomer, unassigned) [Compound 532] | 1.3 | – | 1.76 | 1.18 | – | 3.6 | – | – | – | – | –
19 | CCCc1ncc(C2Oc3cc(-c4cnc([C@@H]5CCCN5C(=O)[C@@H](NC(=O)OC)C(C)C)[nH]4)cc(F)c3-c3cc4cc(-c5cnc([C@@H]6CCCN6C(=O)[C@@H](NC(=O)OC)C(C)C)[nH]5)ccc4n32)s1 (stereo partly shown) [Compound 16] | 1.7 | – | 0.083 | 0.284 | – | 1 | – | – | – | – | –
20 | COC(=O)N[C@H](C(=O)N1CCC[C@H]1c1nc(-c2cc(F)c3c(c2)OC(c2cnc(C4CCCCC4)s2)n2c-3cc3cc(-c4cnc([C@@H]5CCCN5C(=O)[C@@H](NC(=O)OC)C(C)C)[nH]4)ccc32)c[nH]1)C(C)C (stereo partly shown) [Compound 415] | – | – | – | – | 2 | – | 1.6 | 2.88 | 1.43 | – | –
21 | COC(=O)N[C@H](C(=O)N1CCC[C@H]1c1ncc(-c2cc(F)c3c(c2)OC(c2cnc(C4CC4)s2)n2c-3cc3cc(-c4cnc([C@@H]5CC6(C)CC6N5C(=O)[C@@H](NC(=O)OC)C(C)C)[nH]4)ccc32)[nH]1)C(C)C (stereo partly shown) [Compound 517] | – | – | – | – | 3.3 | – | 1.7 | 0.392 | 0.874 | – | –

Source: US9555038B2, “Heterocycle-substituted tetracyclic compounds and methods of use thereof for the treatment of viral diseases” (Merck Sharp & Dohme Corp., priority 2013, dated 2017)
